The values below come from patent US20200290950A1, “ALKAMIDE COMPOUNDS AND USES THEREOF” (NORTH CAROLINA STATE UNIVERSITY, priority 2017, published 2020).

The subject of experiment [1] is RBL-2H3 cells. Briefly: Calcium assay, Fluo-4 (Example 3). It counts as cell-based, rat. The method, then: FIGS. 22A-22D. The alkamide fatty acid is necessary for inhibition of calcium influx. RBL-2H3 cells were plated overnight, incubated with Fluo-4 AM for 1 h, stimulated by 1 μM A23187 (FIG. 22A) or 5 ng/mL DNP-BSA (FIG. 22B) in the absence or presence of each alkamide, and fluorescence was read for 2 mins every 5 secs. Data are presented as the mean change in RFU of 4 experiments. Percent inhibition of calcium influx was calculated for A23187 (FIG. 22C) and DNP-BSA (FIG. 22D) stimulated cells at 2 mins. *P<0.05, **P<0.01, and ***P<0.001 one-way ANOVA with Dunnett's post hoc test compared to A15.
RBL-2H3 cells (1.0×10^5 cells) were incubated overnight in a 96 well black-wall clear bottom plate with or without IgE-DNP (0.1 μg/mL) at 37° C. with 5% CO2. The assay was performed using the Fluo-4 Direct™ Calcium Assay Kit according to the manufacturer's instruction. Briefly, cells were incubated with the Fluo-4 Direct calcium reagent loading solution for 30 minutes at 37° C. with 5% CO2 then 30 mins at room temperature. Prior to stimulation, the well baseline fluorescence was measured every 5 seconds over 1 minute using a BioTek Synergy HT microplate reader with 485/20 nm excitation and 528/20 nm emission filters. Cells were stimulated with 1 μM A23187 or 5 ng/mL DNP (IgE-DNP) in the absence or presence of each compound, and the fluorescence was measured every 5 seconds over 2 minutes. The change in fluorescence (ΔRT) was calculated as the sample fluorescence minus the baseline fluorescence for each well.

Experiment [2] has as its system RBL-2H3 cells. The experiment in a line: β-Hexosaminidase release assay (Example 3). It counts as cell-based, rat. As to the method:
FIGS. 21A-21D. The inhibition of degranulation is dependent on the length of the alkamide fatty acid chain. RBL-2H3 cells were plated overnight, stimulated with 1 μM A23187 (FIG. 21A) or 5 ng/mL DNP-BSA (FIG. 21B) for 1 h in the absence or presence of each compound. Graphs display the mean percent β-hex release. Data are presented as the mean of 4 experiments. Percent inhibition of degranulation of A23187 (FIG. 21C) or DNP-BSA (FIG. 21D) using data from A and B, respectively. *P<0.05, **P<0.01, ***P<0.001, one-way ANOVA with Dunnett's post hoc test compared to vehicle (A, B) or A15 (C, D).
RBL-2H3 cells (1.0×10^5 cells) were incubated with or without 0.1 μg/mL of IgE-DNP overnight in a 96 well plate at 37° C. with 5% CO2. The cells were washed with Tyrode's buffer and assayed with few modifications (Kuehn, Radinger, & Gilfillan, 2010). Briefly, IgE-DNP sensitized cells were stimulated 1 hour with 5 ng/mL of DNP-BSA in the absence or presence of each compound and incubated at 37° C. with 5% CO2. For experiments using only A23187 as the stimulant, cells were washed with Tyrode's buffer and stimulated 1 hour with 1 μM A23187 in the absence or presence of each compound and incubated at 37° C. with 5% CO2. The stimulated cells were centrifuged at 1200×g for 5 minutes. The supernatant or cell lysate (30 μL) was incubated with 3.4 mg/mL of p-NAG (10 μL) for 1 hour at 37° C. The reaction was terminated by addition of 0.2 M sodium carbonate (pH 10) and the absorbance was read at OD405 nm on a BioTek Synergy HT microplate reader. The total 3-hexosaminidase released from the cell was calculated as the difference between the OD of the supernatant and blank plus the difference between the OD of the lysate and blank. The percent β-hexosaminidase released from the cell was calculated as the difference between the OD of the supernatant and blank divided by the total β-hexosaminidase released from the cell multiplied by 100: ODsupernatant−ODblank/[(ODlysate−ODblank)+(ODsupernatant−ODblank)]*100.

Experiment [3] deals with RBL-2H3 cells. The experiment in a line: TNF-α ELISA, 18 hrs (Example 3). It counts as cell-based, rat. As to conditions: 1 μM A23187, 18 hours. As to the method: FIGS. 25A-25B. […] RBL-2H3 cells were plated overnight and stimulated with 1 μM A23187 in the absence or presence of each alkamide for 18 h. Culture supernatants were analyzed for TNF-α levels by ELISA and experiments were performed in triplicate (FIG. 25A). Percent inhibition of TNF-α secretion for each alkamide listed in FIG. 25B. *P<0.05, **P<0.01, ***P<0.001, one-way ANOVA with Dunnett's post hoc test compared to vehicle (FIG. 25A) or A15 (FIG. 25B).
RBL-2H3 cells (1.0×10^5 cells) were incubated overnight in a 24 well plate at 37° C. with 5% CO2. Cells were washed with 1×PBS and stimulated with 1 μM A23187 for 18 hrs in the absence or presence of each compound. The cells were centrifuged (1200×g, 5 min) and the supernatants were collected. The concentration of TNF-α in the supernatants were determined using the TNF-α ELISA kit.
On the technique in general: ELISA stands for enzyme-linked immunosorbent assay.

A further experiment deals with RAW 264.7 cells. The following applies: LPS-stimulated RAW 264.7 cells, literature; cited from earlier work.
For experiment [4], the system named is RBL-2H3 cells. Briefly: Fluo-4 calcium assay, RBL-2H3 cells (Example 1). The following applies: RBL-2H3 cells, 1 μM A23187, microscopy, n=5 fields. It counts as cell-based, rat. As to the method: FIGS. 3A-3H. A15 inhibits calcium influx in RBL-2H3 cells and BMMCs. RBL-2H3 cells (FIGS. 3A-3D) and BMMCs (FIGS. 3E-3H) were plated and incubated overnight prior to treatments. For DNP-BSA treatments, overnight incubation also included 1 μg/mL IgE anti-DNP. Prior to stimulation, cells were washed and loaded with the fluorescent, calcium-sensitive dye fluo-4 AM using the Fluo-4 AM Direct™ Calcium Assay Kit and fluorescence was measured on a microplate reader. Calcium influx was triggered in all experiments using either 1 μM A23187 or 50 ng/mL DNP-BSA, as indicated. Bar graphs represent the means±SEM of the Δ in RFU's at 1 min post-A23187- or DNP-BSA-stimulation from 3 independent experiments (FIGS. 3B, 3D, 3F, 3H). Statistical analysis was performed using a one-way ANOVA with Dunnett's post-hoc test, *p<0.05, **p<0.01, ***p<0.001.
FIG. 9. A15 inhibits calcium influx in RBL-2H3 cells. Prior to stimulation, cells were washed and loaded with the fluorescent, calcium-sensitive dye fluo-4 AM using the Fluo-4 AM Direct™ Calcium Assay Kit. Cells were treated with 100 μM A15 (D, E, F), 0.25% ethanol only (vehicle) (A, B, C), 1 μM A23187 (G, H, I), and 100 μM A15 in combination with 1 μM A23187 (J, K, L) as indicated. Images were acquired at 30, 60, and 120 seconds, post-stimulation. Images are representative of several experiments.
RBL-2H3, BMMC, RAW 264.7, or Jurkat cells were plated in clear-bottom, black, 96-well plates (BioExpress, Kaysville, Utah) and incubated overnight with media only or media containing IgE anti-DNP. Cells were loaded with the calcium-sensitive dye fluo-4 AM using the Fluo-4 Direct™ Calcium Assay Kit (Thermo Fisher Scientific) according to the manufacturer's instructions by incubating at 37° C. for 30 min followed by 30 min at room temperature. Prior to stimulation, baseline fluorescent readings were measured from triplicate wells in 5 s intervals for 1 min using a Synergy HT microplate reader with 485/20 nm excitation and 528/20 nm emission filters. Cells were then treated with either 1 μM A23187 or 50 ng/mL DNP-BSA prepared in calcium- and magnesium-containing or calcium- and magnesium-free HBSS with 20 mM HEPES, and fluorescence was measured in 10 s intervals for 2 min. The final concentration of ethanol was 0.25% in these assays. The average baseline fluorescence of each well was subtracted from the stimulated fluorescent values to calculate the change (Δ) in RFU's and graphed as shown.
Cells loaded with fluo-4 were treated and observed with an Axioskop 2 microscope (Zeiss, Oberkochen, Germany) using a fluorescent illuminator HXP-120 light source and images were acquired at 30, 60, or 120 sec after stimulation with a AxioCam MRc5 camera (Zeiss) and AxioVision software (Zeiss).

Experiment [5] has as its target cannabinoid type 2 receptor (CB2) (Homo sapiens, UniProt P34972). The following applies: Raduner et al., 2006; cited from earlier work.

cannabinoid type 2 receptor (CB2), sequence (P34972 whole entry, species assumed): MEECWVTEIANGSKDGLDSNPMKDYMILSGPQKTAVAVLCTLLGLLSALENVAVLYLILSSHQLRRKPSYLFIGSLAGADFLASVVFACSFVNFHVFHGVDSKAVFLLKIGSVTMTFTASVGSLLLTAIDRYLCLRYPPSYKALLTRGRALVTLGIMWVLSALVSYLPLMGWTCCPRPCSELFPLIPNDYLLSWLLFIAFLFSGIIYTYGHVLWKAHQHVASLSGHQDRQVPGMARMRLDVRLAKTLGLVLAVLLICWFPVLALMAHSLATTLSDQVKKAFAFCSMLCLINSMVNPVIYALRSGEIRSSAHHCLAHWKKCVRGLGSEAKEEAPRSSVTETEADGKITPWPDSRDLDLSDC

For the compound `CCCC(=O)NCC(C)C` [YM8-87, N-Isobutylbutyramide], the “rank as inhibitor of calcium influx” value in the experiment with RBL-2H3 cells [1] (A23187 and DNP-BSA stimulation) was “least effective inhibitor of calcium influx”. Moreover, the “percent inhibition of degranulation” value in the experiment with RBL-2H3 cells [2] (5 ng/mL DNP-BSA, 1 hour) is 12%; with RBL-2H3 cells [2] (1 μM A23187, 1 hour) it was 11%.
For the compound `CCN(CC)CCCCCCCCOC(=O)c1cc(OC)c(OC)c(OC)c1` [TMB-8, 3,4,5-trimethoxybenzoic acid 8-(diethylamino) octyl ester, reference compound], the “calcium response (Fluo-4 fluorescence over 2 min)” value in the experiment on RBL-2H3 cells [1] (5 ng/mL DNP-BSA) and in the experiment on RBL-2H3 cells [1] (1 μM A23187) was “decreased rate of calcium entering the cytosol” throughout. The β-hex release result with RBL-2H3 cells [2] (5 ng/mL DNP-BSA, 1 h) is “also inhibited”; with RBL-2H3 cells [2] (1 μM A23187, 1 h), “significantly inhibited β-hex release”.
As for `CCCCCC(=O)NCC(C)C` [YM5-47, N-Isobutylhexanamide], in the experiment with RBL-2H3 cells [3], the “percent inhibition of TNF-α secretion” value was 47%. In the experiment on RBL-2H3 cells [1] (5 ng/mL DNP-BSA, at 2 minutes), the “percent inhibition of calcium influx” value turned out to be 38%. Further, the “percent inhibition of degranulation” value was 36% in the experiment on RBL-2H3 cells [2] (5 ng/mL DNP-BSA, 1 hour) and 51% with RBL-2H3 cells [2] (1 μM A23187, 1 hour).
For the compound `CCCCCCCCCCCC(=O)NCC(C)C` [YM5-27, N-Isobutyldodecanamide], in the experiment on RBL-2H3 cells [3], the “percent inhibition of TNF-α secretion” value is reported as 76%. The TNF-α production entry in the experiment on RAW 264.7 cells is reported as “best inhibitors”. The “percent inhibition of calcium influx” value in the experiment with RBL-2H3 cells [1] (5 ng/mL DNP-BSA, at 2 minutes) was found to be 65%; in the experiment with RBL-2H3 cells [1] (1 μM A23187, at 2 minutes), 79%. Besides, the “percent inhibition of degranulation” value in the experiment with RBL-2H3 cells [2] (5 ng/mL DNP-BSA, 1 hour) was found to be 33%; in the experiment on RBL-2H3 cells [2] (1 μM A23187, 1 hour) it was 40%.
On to `CNc1ccc2oc(C[C@H]3O[C@@]4(CC[C@H]3C)O[C@H]([C@H](C)C(=O)c3ccc[nH]3)[C@H](C)C[C@H]4C)nc2c1C(=O)O` [A23187, reference compound], for which the “increase in fluorescence (pixel intensity)” value in the experiment on RBL-2H3 cells [4] is on record as 158.4%.
`CCCCCCCCCC(=O)NCC(C)C` [YM8-86, N-Isobutyldecanamide]: in the experiment on RBL-2H3 cells [3], the “percent inhibition of TNF-α secretion” value turned out to be 50%. The “percent inhibition of calcium influx” value in the experiment with RBL-2H3 cells [1] (5 ng/mL DNP-BSA, at 2 minutes) came out at 40%; in the experiment on RBL-2H3 cells [1] (1 μM A23187, at 2 minutes), 92%. Also, the “percent inhibition of degranulation” value was found to be 46% in the experiment with RBL-2H3 cells [2] (5 ng/mL DNP-BSA, 1 hour) and 59% in the experiment with RBL-2H3 cells [2] (1 μM A23187, 1 hour).
With `C/C=C\C=C/CC/C=C/C=C/C(=O)NCC(C)C` [A11a/b, dodeca-2E,4E,8Z,10Z(E)-tetraenoic acid isobutylamide, reference compound], the “binding to CB2” value in experiment [5] was “shown to bind”. The TNF-α production entry in the experiment with RAW 264.7 cells is “reduced TNF-α production”.
